# Measured values from patent US9346809B2 (LEO PHARMA A/S, priority 2009, dated 2016).
# Key:
# Format in all cases: biochemical
# [1] = target: T1, JAK2 (catalytic domain, His-tag) (Homo sapiens, UniProt O60674); test: JAK kinase assay (HTRF, phosphorylation of TK substrate-biotin), JAK2; conditions: HTRF assay, ATP at Km (4 μM); read-out: JAK2 kinase inhibitory activity (EC50 indicator)
# T1 construct: All four purified enzymes contain only the catalytic domain; His (N); purchased Carna Biosciences, Inc; host or cells: baculovirus expression system
# T1 sequence (O60674 849-1124 limits assumed): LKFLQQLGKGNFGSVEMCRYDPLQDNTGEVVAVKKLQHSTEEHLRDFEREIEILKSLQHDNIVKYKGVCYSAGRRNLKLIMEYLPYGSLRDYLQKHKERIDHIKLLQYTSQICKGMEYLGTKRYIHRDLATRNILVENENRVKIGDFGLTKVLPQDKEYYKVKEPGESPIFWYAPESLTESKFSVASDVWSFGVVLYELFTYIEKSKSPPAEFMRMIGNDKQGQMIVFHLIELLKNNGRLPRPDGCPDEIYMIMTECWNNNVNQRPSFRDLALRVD
# Summary of the method: (§1)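 Per reaction, 5 ng JAK1, 0.1 ng JAK2, 0.3 ng JAK3 or 0.8 ng TYK2 (baculovirus-expressed catalytic domains) acted on 1 μM TK substrate-biotin at Km ATP for 20-30 min, RT. Phosphorylation measured by HTRF.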
# [2] = target: T2, JAK3 (catalytic domain, His-tag) (Homo sapiens, UniProt P52333); test: JAK kinase assay (HTRF, phosphorylation of TK substrate-biotin), JAK3; conditions: HTRF assay, ATP at Km (2 μM); read-out: JAK3 kinase inhibitory activity (EC50 indicator)
# T2 construct: All four purified enzymes contain only the catalytic domain; His (N); purchased Carna Biosciences, Inc; host or cells: baculovirus expression system
# T2 sequence (P52333 822-1111 limits assumed): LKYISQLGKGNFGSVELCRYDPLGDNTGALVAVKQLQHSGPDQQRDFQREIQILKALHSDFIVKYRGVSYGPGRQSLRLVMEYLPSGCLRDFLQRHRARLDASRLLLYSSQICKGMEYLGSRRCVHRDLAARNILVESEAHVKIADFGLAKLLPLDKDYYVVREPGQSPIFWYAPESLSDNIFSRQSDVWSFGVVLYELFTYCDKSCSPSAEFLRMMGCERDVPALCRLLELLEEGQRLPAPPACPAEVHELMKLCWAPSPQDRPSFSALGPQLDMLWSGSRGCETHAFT
# Summary of the method: as §1
# [3] = target: T3, JAK1 (aa 850-1154, catalytic domain, GST-tag) (Homo sapiens, UniProt P23458); test: JAK kinase assay (HTRF, phosphorylation of TK substrate-biotin), JAK1; conditions: HTRF assay, ATP at Km (7 μM); read-out: JAK1 kinase inhibitory activity (EC50 indicator)
# T3 construct: JAK1 (aa 850-1154) and TYK2 (aa 871-1187) are expressed with an N-terminally fused GST-tag; GST (N); purchased Carna Biosciences, Inc; host or cells: baculovirus expression system
# T3 sequence (P23458 850-1154): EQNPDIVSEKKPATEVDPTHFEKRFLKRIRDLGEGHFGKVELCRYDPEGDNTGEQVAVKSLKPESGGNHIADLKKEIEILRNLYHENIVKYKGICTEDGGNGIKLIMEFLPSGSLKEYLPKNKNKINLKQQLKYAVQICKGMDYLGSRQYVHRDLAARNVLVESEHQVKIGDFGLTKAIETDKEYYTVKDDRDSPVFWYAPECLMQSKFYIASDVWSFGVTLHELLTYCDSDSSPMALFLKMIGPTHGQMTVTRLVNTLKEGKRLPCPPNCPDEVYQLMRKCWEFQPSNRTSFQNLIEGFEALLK
# Summary of the method: as §1
# [4] = target: T4, TYK2 (aa 871-1187, catalytic domain, GST-tag) (Homo sapiens, UniProt P29597); test: JAK kinase assay (HTRF, phosphorylation of TK substrate-biotin), TYK2; conditions: HTRF assay, ATP at Km (13 μM); read-out: TYK2 kinase inhibitory activity (EC50 indicator)
# T4 construct: JAK1 (aa 850-1154) and TYK2 (aa 871-1187) are expressed with an N-terminally fused GST-tag; GST (N); purchased Carna Biosciences, Inc; host or cells: baculovirus expression system
# T4 sequence (P29597 871-1187): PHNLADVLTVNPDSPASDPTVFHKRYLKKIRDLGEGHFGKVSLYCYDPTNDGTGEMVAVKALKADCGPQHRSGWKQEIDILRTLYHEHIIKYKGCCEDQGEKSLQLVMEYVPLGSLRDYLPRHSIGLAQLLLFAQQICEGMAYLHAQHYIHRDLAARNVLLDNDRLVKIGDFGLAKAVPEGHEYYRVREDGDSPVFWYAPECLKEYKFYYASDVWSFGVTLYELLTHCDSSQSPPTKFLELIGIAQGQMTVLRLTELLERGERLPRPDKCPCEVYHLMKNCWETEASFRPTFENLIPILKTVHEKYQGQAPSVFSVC
# Summary of the method: as §1
SMILES,EC50 [1] [nM],EC50 [2] [nM],EC50 [3] [nM],EC50 [4] [nM]
"Nc1nc(N2CCN(C(=O)c3cnc4ccccc4n3)C3(CC3)C2)c2cc[nH]c2n1 [Example 305, [7-(2-Amino-7H-pyrrolo[2,3-d]pyrimidin-4-yl)-4,7-diaza-spiro[2.5]oct-4-yl]-quinoxalin-2-yl-methanone]",< 100,100 to 500,< 100,100 to 500
"N#CCc1cccc(CC(=O)N2CCN(c3nc(N)nc4[nH]ccc34)CC23CC3)c1 [Example 306, (3-{2-[7-(2-Amino-7H-pyrrolo[2,3-d]pyrimidin-4-yl)-4,7-diaza-spiro[2.5]oct-4-yl]-2-oxo-ethyl}-phenyl)-acetonitrile]",100 to 500,100 to 500,100 to 500,> 500
"N#CCc1ccc(CC(=O)N2CCN(c3nc(N)nc4[nH]ccc34)CC23CC3)cc1 [Example 307, (4-{2-[7-(2-Amino-7H-pyrrolo[2,3-d]pyrimidin-4-yl)-4,7-diaza-spiro[2.5]oct-4-yl]-2-oxo-ethyl}-phenyl)-acetonitrile]",100 to 500,100 to 500,100 to 500,> 500
"N#CC1(C(=O)N2CCN(c3nc(N)nc4[nH]ccc34)CC23CC3)CC1 [Example 308, 1-[7-(2-Amino-7H-pyrrolo[2,3-d]pyrimidin-4-yl)-4,7-diaza-spiro[2.5]octane-4-carbonyl]-cyclopropanecarbonitrile]",< 100,100 to 500,100 to 500,> 500
"Nc1nc(N2CCN(C(=O)Cc3ccc(C(F)(F)F)cc3)C3(CC3)C2)c2cc[nH]c2n1 [Example 309, 1-[7-(2-Amino-7H-pyrrolo[2,3-d]pyrimidin-4-yl)-4,7-diaza-spiro[2.5]oct-4-yl]-2-(4-trifluoromethyl-phenyl)-ethanone]",< 100,< 100,< 100,> 500
"N#CCCCC(=O)N1CCN(c2nc(N)nc3[nH]ccc23)CC12CC2 [Example 310, 5-[7-(2-Amino-7H-pyrrolo[2,3-d]pyrimidin-4-yl)-4,7-diaza-spiro[2.5]oct-4-yl]-5-oxo-pentanenitrile]",< 100,< 100,< 100,> 500
"N#Cc1ccc(CC(=O)N2CCN(c3nc(N)nc4[nH]ccc34)CC23CC3)cc1 [Example 312, 4-{2-[7-(2-Amino-7H-pyrrolo[2,3-d]pyrimidin-4-yl)-4,7-diaza-spiro[2.5]oct-4-yl]-2-oxo-ethyl}-benzonitrile]",< 100,< 100,< 100,100 to 500
"N#Cc1ccc(C(=O)N2CCN(c3ncnc4[nH]cc(Cl)c34)CC23CC3)cc1 [Example 315, 4-[7-(5-Chloro-7H-pyrrolo[2,3-d]pyrimidin-4-yl)-4,7-diaza-spiro[2.5]octane-4-carbonyl]-benzonitrile]",> 500,> 500,> 500,> 500
"N#CCc1cccc(CC(=O)N2CCN(c3ncnc4[nH]cc(Cl)c34)CC23CC3)c1 [Example 318, (3-{2-[7-(5-Chloro-7H-pyrrolo[2,3-d]pyrimidin-4-yl)-4,7-diaza-spiro[2.5]oct-4-yl]-2-oxo-ethyl}-phenyl)-acetonitrile]",> 500,> 500,> 500,> 500
"N#CCc1ccc(CC(=O)N2CCN(c3ncnc4[nH]cc(Cl)c34)CC23CC3)cc1 [Example 319, (4-{2-[7-(5-Chloro-7H-pyrrolo[2,3-d]pyrimidin-4-yl)-4,7-diaza-spiro[2.5]oct-4-yl]-2-oxo-ethyl}-phenyl)-acetonitrile]",100 to 500,100 to 500,> 500,> 500
"O=C(Cc1ccc(C(F)(F)F)cc1)N1CCN(c2ncnc3[nH]cc(Cl)c23)CC12CC2 [Example 321, 1-[7-(5-Chloro-7H-pyrrolo[2,3-d]pyrimidin-4-yl)-4,7-diaza-spiro[2.5]oct-4-yl]-2-(4-trifluoromethyl-phenyl)-ethanone]",100 to 500,< 100,100 to 500,> 500
"N#CCCCC(=O)N1CCN(c2ncnc3[nH]cc(Cl)c23)CC12CC2 [Example 322, 5-[7-(5-Chloro-7H-pyrrolo[2,3-d]pyrimidin-4-yl)-4,7-diaza-spiro[2.5]oct-4-yl]-5-oxo-pentanenitrile]",> 500,100 to 500,> 500,> 500
"N#Cc1cccc(CC(=O)N2CCN(c3ncnc4[nH]cc(Cl)c34)CC23CC3)c1 [Example 323, 3-{2-[7-(5-Chloro-7H-pyrrolo[2,3-d]pyrimidin-4-yl)-4,7-diaza-spiro[2.5]oct-4-yl]-2-oxo-ethyl}-benzonitrile]",< 100,100 to 500,> 500,> 500
"N#Cc1ccc(CC(=O)N2CCN(c3ncnc4[nH]cc(Cl)c34)CC23CC3)cc1 [Example 324, 4-{2-[7-(5-Chloro-7H-pyrrolo[2,3-d]pyrimidin-4-yl)-4,7-diaza-spiro[2.5]oct-4-yl]-2-oxo-ethyl}-benzonitrile]",< 100,< 100,< 100,> 500
"N#CCCC(=O)N1CCN(c2ncnc3[nH]cc(Cl)c23)CC12CC2 [Example 325, 4-[7-(5-Chloro-7H-pyrrolo[2,3-d]pyrimidin-4-yl)-4,7-diaza-spiro[2.5]oct-4-yl]-4-oxo-butyronitrile]",100 to 500,100 to 500,> 500,> 500
"Cc1c[nH]c2ncnc(N3CCN(C(=O)c4cnccn4)C4(CC4)C3)c12 [Example 326, [7-(5-Methyl-7H-pyrrolo[2,3-d]pyrimidin-4-yl)-4,7-diaza-spiro[2.5]oct-4-yl]-pyrazin-2-yl-methanone]",> 500,> 500,> 500,> 500

# Other lines, results leading:
EC50 [1] [nM],EC50 [2] [nM],EC50 [3] [nM],EC50 [4] [nM],SMILES
< 100,100 to 500,< 100,> 500,"N#Cc1ccc(C(=O)N2CCN(c3nc(N)nc4[nH]ccc34)CC23CC3)cc1 [Example 303, 4-[7-(2-Amino-7H-pyrrolo[2,3-d]pyrimidin-4-yl)-4,7-diaza-spiro[2.5]octane-4-carbonyl]-benzonitrile]"
< 100,< 100,< 100,100 to 500,"N#Cc1cccc(C(=O)N2CCN(c3nc(N)nc4[nH]ccc34)CC23CC3)c1 [Example 304, 3-[7-(2-Amino-7H-pyrrolo[2,3-d]pyrimidin-4-yl)-4,7-diaza-spiro[2.5]octane-4-carbonyl]-benzonitrile]"
100 to 500,100 to 500,100 to 500,> 500,"N#Cc1cccc(CC(=O)N2CCN(c3nc(N)nc4[nH]ccc34)CC23CC3)c1 [Example 311, 3-{2-[7-(2-Amino-7H-pyrrolo[2,3-d]pyrimidin-4-yl)-4,7-diaza-spiro[2.5]oct-4-yl]-2-oxo-ethyl}-benzonitrile]"
< 100,< 100,< 100,100 to 500,"N#CCCC(=O)N1CCN(c2nc(N)nc3[nH]ccc23)CC12CC2 [Example 313, 4-[7-(2-Amino-7H-pyrrolo[2,3-d]pyrimidin-4-yl)-4,7-diaza-spiro[2.5]oct-4-yl]-4-oxo-butyronitrile]"
100 to 500,> 500,> 500,> 500,"O=C(c1cnccn1)N1CCN(c2ncnc3[nH]cc(Cl)c23)CC12CC2 [Example 314, [7-(5-Chloro-7H-pyrrolo[2,3-d]pyrimidin-4-yl)-4,7-diaza-spiro[2.5]oct-4-yl]-pyrazin-2-yl-methanone]"
100 to 500,100 to 500,> 500,> 500,"N#Cc1cccc(C(=O)N2CCN(c3ncnc4[nH]cc(Cl)c34)CC23CC3)c1 [Example 316, 3-[7-(5-Chloro-7H-pyrrolo[2,3-d]pyrimidin-4-yl)-4,7-diaza-spiro[2.5]octane-4-carbonyl]-benzonitrile]"
100 to 500,> 500,> 500,> 500,"O=C(c1cnc2ccccc2n1)N1CCN(c2ncnc3[nH]cc(Cl)c23)CC12CC2 [Example 317, [7-(5-Chloro-7H-pyrrolo[2,3-d]pyrimidin-4-yl)-4,7-diaza-spiro[2.5]oct-4-yl]-quinoxalin-2-yl-methanone]"
< 100,100 to 500,100 to 500,> 500,"O=C(Cc1ccc(F)cc1)N1CCN(c2ncnc3[nH]cc(Cl)c23)CC12CC2 [Example 320, 1-[7-(5-Chloro-7H-pyrrolo[2,3-d]pyrimidin-4-yl)-4,7-diaza-spiro[2.5]oct-4-yl]-2-(4-fluoro-phenyl)-ethanone]"
